Biological target: T1, human CCR1 (Homo sapiens, UniProt P32246)
T1 construct: expressed in transfected cells; membranes prepared
T1 sequence (P32246 1-355): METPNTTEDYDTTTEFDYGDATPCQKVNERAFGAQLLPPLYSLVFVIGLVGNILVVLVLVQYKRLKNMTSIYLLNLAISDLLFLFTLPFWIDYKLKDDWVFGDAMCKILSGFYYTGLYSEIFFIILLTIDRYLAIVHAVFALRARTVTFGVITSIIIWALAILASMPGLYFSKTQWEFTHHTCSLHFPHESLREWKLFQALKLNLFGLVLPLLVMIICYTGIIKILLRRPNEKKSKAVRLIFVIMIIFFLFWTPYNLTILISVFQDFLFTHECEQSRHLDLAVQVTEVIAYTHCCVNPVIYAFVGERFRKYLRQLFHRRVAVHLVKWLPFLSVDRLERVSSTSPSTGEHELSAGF
Assay: Human CCR1 binding assay ([125I] MIP-1α displacement)
Conditions: displacement of 33 pM [125I] MIP-1α from HEK-CCR1 membranes, pH 7.4, 1.5 hrs at room temperature
Protocol: HEK293 cells, from ECACC, stably expressing recombinant human CCR1 (HEK-CCR1) were used to prepare cell membranes containing CCR1. The membranes were stored at −70° C. The concentration of membranes of each batch was adjusted to 10% specific binding of 33 pM [^125I] MIP-1α.
100 μL of HEK-CCR1 membranes diluted in assay buffer pH 7.4 (137 mM NaCl (Merck, Cat No 1.06404), 5.7 mM Glucose (Sigma, Cat No G5400), 2.7 mM KCl (Sigma, Cat No P-9333), 0.36 mM NaH2PO4×H2O (Merck, Cat No 1.06346), 10 mM HEPES (Sigma, Cat No H3375), 0.1% (w/v) Gelatine (Sigma, Cat No G2625)) with the addition of 17500 units/L Bacitracin (Sigma, Cat No B 1025) were added to each well of the 96 well filter plate (0.45 μm opaque Millipore cat no MHVB N4550). 12 μL of compound in assay buffer, containing 10% DMSO, was added to give final compound concentrations of 1×10^−5.5-1×10^−9.5 M. 12 μl cold human recombinant MIP-1α (270-LD-050, R&D Systems, Oxford, UK), 10 nM final concentration in assay buffer supplemented with 10% DMSO, was included in certain wells (without compound) as non-specific binding control (NSB). 12 μl assay buffer with 10% DMSO was added to certain wells (without compound) to detect maximal binding (B0).
12 μL [^125I] MIP-1α, diluted in assay buffer to a final concentration in the wells of 33 pM, was added to all wells. The plates with lid were then incubated for 1.5 hrs at room temperature. After incubation the wells were emptied by vacuum filtration (MultiScreen Resist Vacuum Manifold system, Millipore) and washed once with 200 μl assay buffer. After the wash, all wells received an addition of 50 μL of scintillation fluid (OptiPhase “Supermix”, Wallac Oy, Turko, Finland). Bound [^125I] MIP-1α was measured using a Wallac Trilux 1450 MicroBeta counter. Window settings: Low 5-High 1020, 1-minute counting/well.
The following equation was used to calculate percent displacement.
Percent displacement=1−((cpm test−cpm NSB)/(cpm B0−cpm NSB)) where:
cpm test=average cpm in duplicate wells with membranes and compound and [^125I] MIP-1α cpm; NSB=average cpm in the wells with membranes and MIP-1α and [^125I] MIP-1α (non-specific binding) cpm; B0=average cpm in wells with membranes and assay buffer and [^125I] MIP-1α (maximum binding).
The molar concentration of compound producing 50% displacement (IC50) was derived using the Excel-based program XLfit (version 2.0.9) to fit data to a 4-parameter logistics function.

SMILES	IC50 [nM]
CCC(=O)Nc1cc(Cl)c(O)cc1OC[C@@](C)(O)CNC1CCN(Cc2ccc(Cl)cc2)CC1 [Example 1, N-{5-Chloro-2-[((2S)-3-{[1-(4-chlorobenzyl)piperidin-4-yl]amino}-2-hydroxy-2-methylpropyl)oxy]-4-hydroxyphenyl}propaneamide di-trifluoroacetate]	0.4
CCC(=O)Nc1ccc(O)cc1OC[C@@](C)(O)CNC1CCN(Cc2ccc(Cl)cc2)CC1 [Comparison 1]	7
CC(=O)Nc1cc(Cl)c(O)cc1OC[C@@H](O)CNC1CCN(Cc2ccc(Cl)cc2)CC1 [Example 8, N-{5-Chloro-2-[((2S)-3-{[1-(4-chlorobenzyl)piperidin-4-yl]amino}-2-hydroxypropyl)oxy]-4-hydroxyphenyl}acetamide di-trifluoroacetate]	1.6
CCC(=O)Nc1ccc(O)cc1OC[C@@H](O)CNC1CCN(Cc2ccc(Cl)cc2)CC1 [Comparison 9]	13.6

More lines, in order of falling IC50, values ahead:

IC50 [nM]	SMILES
4.5	CC(=O)Nc1ccc(O)cc1OC[C@@H](O)CNC1CCN(Cc2ccc(Cl)cc2)CC1 [Comparison 8]
3.9	CC(=O)Nc1ccc(O)cc1OC[C@@](C)(O)CNC1CCN(Cc2ccc(Cl)cc2)CC1 [Comparison 2]
2.7	CCC(=O)Nc1cc(Cl)c(O)cc1OC[C@@H](O)CNC1CCN(Cc2ccc(Cl)cc2)CC1 [Example 9, N-{5-Chloro-2-[((2S)-3-{[1-(4-chlorobenzyl)piperidin-4-yl]amino}-2-hydroxylpropyl)oxy]-4-hydroxyphenyl}propaneamide di-trifluoroacetate]
0.7	CC(=O)Nc1cc(Cl)c(O)cc1OC[C@@](C)(O)CNC1CCN(Cc2ccc(Cl)cc2)CC1 [Example 2, N-{5-Chloro-2-[((2S)-3-{[1-(4-chlorobenzyl)piperidin-4-yl]amino}-2-hydroxy-2-methylpropyl)oxy]-4-hydroxyphenyl}acetamide di-trifluoroacetate]

— patent publication US20080194632A1, “Novel Piperidine Derivatives as Chemokine Receptor Modulators Useful for the Treatment of Respiratory Diseases” (ASTRAZENECA AB, priority 2005, published 2008)
